Experimental data reported in US20090306454A1, “Devices and Methods for Stimulation of Tissue” (Stanford University, priority 2005, published 2009).

Columns and labels:
[1] = Chemical stability of Ach at body temperature (37 C, HPLC with UV detection); assay type: physicochemical
Excerpt: To determine the stability of acetylcholine at 37 C to help guide the reservoir sizes and locations, aliquots of reference acetylcholine and standard strength Miochol-E (acetylcholine, injectable, Novartis Pharmaceuticals) were stored in sterile glass containers at 37 C.

[2] = test system: denervated orbicularis oculi; assay: Ach stimulation in the denervated rabbit model (Miochol-E injected into orbicularis oculi pocket); assay type: in vivo; parameters: key to eyelid response to Ach delivered: N = no response; C = complete eyelid closure
Excerpt: a) Two white New Zealand female rabbits were anesthetized by using 3-5% isofluorane inhalation and ketamine/xylazine and monitored by Heska monitor (SP02, heart rate, and rectal temperature). b) A pre-auricular incision was made the facial nerve was surgically sectioned and a five millimeter section was eliminated.
To determine the response of denervated orbicularis oculi in rabbits to stimulation with varying dosages of Miochol-E (acetylcholine chloride, injectable, Novartis pharmaceuticals) the FDA approved Miochol-E in 10 mg/ml, or 0.055M Ach (molar mass of 182 g/mol) was used to test the effects in the denervated rabbit model.
Methods: The rabbit was sedated in standard fashion, an eyelid incision was made 5 mm from the lash line and the Miochol E was injected into the orbicularis oculi pocket. Retesting was done at six weeks.

[3] = test system: right denervated orbicularis oculi; assay: Synergistic action of electric stimulation and Ach on denervated orbicularis oculi; assay type: in vivo, rabbit
Excerpt: A possible synergistic interaction between Ach and electric stimulation were observed as follows. After having injected an amount of Ach into the right denervated orbicularis oculi that produced no reaction, electric stimulation was delivered to the muscle at an intensity previously unable to produce a definitive blink.
In a subsequent test session, the right denervated orbicularis was first tested using electrical stimulation alone (prior to any Ach testing) as shown in Table III.
After the delivery of 200 ul of Ach to the right denervated orbicularis oculi, the right orbicularis oculi was allowed to relax to baseline position prior to Ach stimulation. No saline flush was performed. Electric stimulation was given at 10 msec phase duration at 3 volts.

[4] = Full Strength Ach (10 mg/ml), 200 μl, denervated rabbit orbicularis oculi

CC(=O)OCC[N+](C)(C)C.[Cl-] [Ach, acetylcholine chloride]
stability at body temperature ([1]; 14 days in sterile glass at 37 C): stable | Peak Area (Ach concentration by HPLC-UV) ([1]; after storage at 37 C for 14 days in sterile glass): 56494 | muscle contraction / eyelid closure (conclusion from experiments) ([2]; Ach delivered to the orbicularis in a diffuse fashion, at certain concentrations and volumes): tonic, prolonged closure | eyelid response to Ach delivered ([2]; Ach dilution 1:1, 0.5 μl, denervated rabbit orbicularis oculi): N | eyelid response to Ach delivered ([2]; Ach dilution 1:1, 1 μl, denervated rabbit orbicularis oculi): N | eyelid response to Ach delivered ([2]; Ach dilution 1:1, 5 μl, denervated rabbit orbicularis oculi): N | eyelid response to Ach delivered ([2]; Ach dilution 1:1, 10 μl, denervated rabbit orbicularis oculi): N | eyelid response to Ach delivered ([2]; Ach dilution 1:1, 25 μl, denervated rabbit orbicularis oculi): N | eyelid response to Ach delivered ([2]; Ach dilution 1:1, 50 μl, denervated rabbit orbicularis oculi): N | eyelid response to Ach delivered ([2]; Ach dilution 1:1, 100 μl, denervated rabbit orbicularis oculi): N | eyelid response to Ach delivered ([2]; Ach dilution 1:2, 0.5 μl, denervated rabbit orbicularis oculi): N | eyelid response to Ach delivered ([2]; Ach dilution 1:2, 1 μl, denervated rabbit orbicularis oculi): N | eyelid response to Ach delivered ([2]; Ach dilution 1:2, 5 μl, denervated rabbit orbicularis oculi): N | eyelid response to Ach delivered ([2]; Ach dilution 1:2, 10 μl, denervated rabbit orbicularis oculi): N | eyelid response to Ach delivered ([2]; Ach dilution 1:2, 25 μl, denervated rabbit orbicularis oculi): N | eyelid response to Ach delivered ([2]; Ach dilution 1:2, 50 μl, denervated rabbit orbicularis oculi): N | eyelid response to Ach delivered ([2]; Ach dilution 1:2, 100 μl, denervated rabbit orbicularis oculi): N | eyelid response to Ach delivered ([2]; Ach dilution 1:5, 0.5 μl, denervated rabbit orbicularis oculi): N | eyelid response to Ach delivered ([2]; Ach dilution 1:5, 1 μl, denervated rabbit orbicularis oculi): N | eyelid response to Ach delivered ([2]; Ach dilution 1:5, 5 μl, denervated rabbit orbicularis oculi): N | eyelid response to Ach delivered ([2]; Ach dilution 1:5, 10 μl, denervated rabbit orbicularis oculi): N | eyelid response to Ach delivered ([2]; Ach dilution 1:5, 25 μl, denervated rabbit orbicularis oculi): N | eyelid response to Ach delivered ([2]; Ach dilution 1:5, 50 μl, denervated rabbit orbicularis oculi): N | eyelid response to Ach delivered ([2]; Ach dilution 1:5, 100 μl, denervated rabbit orbicularis oculi): N | eyelid response to Ach delivered ([2]; Ach dilution 1:10, 0.5 μl, denervated rabbit orbicularis oculi): N | eyelid response to Ach delivered ([2]; Ach dilution 1:10, 1 μl, denervated rabbit orbicularis oculi): N | eyelid response to Ach delivered ([2]; Ach dilution 1:10, 5 μl, denervated rabbit orbicularis oculi): N | eyelid response to Ach delivered ([2]; Ach dilution 1:10, 10 μl, denervated rabbit orbicularis oculi): N | eyelid response to Ach delivered ([2]; Ach dilution 1:10, 25 μl, denervated rabbit orbicularis oculi): N | eyelid response to Ach delivered ([2]; Ach dilution 1:10, 50 μl, denervated rabbit orbicularis oculi): N | eyelid response to Ach delivered ([2]; Ach dilution 1:10, 100 μl, denervated rabbit orbicularis oculi): N | eyelid response to Ach delivered ([2]; Full Strength Ach (10 mg/ml), 0.5 μl, denervated rabbit orbicularis oculi): N | eyelid response to Ach delivered ([2]; Full Strength Ach (10 mg/ml), 1 μl, denervated rabbit orbicularis oculi): N | eyelid response to Ach delivered ([2]; Full Strength Ach (10 mg/ml), 5 μl, denervated rabbit orbicularis oculi): N | eyelid response to Ach delivered ([2]; Full Strength Ach (10 mg/ml), 10 μl, denervated rabbit orbicularis oculi): N | eyelid response to Ach delivered ([2]; Full Strength Ach (10 mg/ml), 25 μl, denervated rabbit orbicularis oculi): N | eyelid response to Ach delivered ([2]; Full Strength Ach (10 mg/ml), 50 μl, denervated rabbit orbicularis oculi): N | eyelid response to Ach delivered ([2]; Full Strength Ach (10 mg/ml), 100 μl, denervated rabbit orbicularis oculi): N | duration of complete eyelid closure [2, 4]: 1 min | eyelid response to Ach delivered [2, 4]: C | eyelid response to electric stimulation after Ach delivery ([3]; after 200 ul of Ach, muscle relaxed to baseline, no saline flush, electric stimulation 10 msec phase duration at 3 volts): Reproducible complete closure blinks | eyelid reaction to injected Ach alone ([3]; an amount of Ach injected into the right denervated orbicularis oculi, before electric stimulation): no reaction | eyelid response to electric stimulation after Ach injection ([3]; electric stimulation at an intensity previously unable to produce a definitive blink, after Ach amount that produced no reaction, over three stimulated partial blink motions): closed tightly for four minutes
